Experiments:
Type in all cases: cell-based
ER-α [1] = target: T1, ER-α (Homo sapiens, UniProt P03372); assay: ER-α in Cell Western Assay (SP1); conditions: MCF-7 cells, SP1 rabbit monoclonal Ab, 4 or 24 hr post compound addition, read-out: ER In-Cell Western Assay (SP1); for Emax: MCF7, Max Response; for DC50: IC50
T1 construct: endogenous in cells; host or cells: MCF-7
T1 sequence (P03372 1-595): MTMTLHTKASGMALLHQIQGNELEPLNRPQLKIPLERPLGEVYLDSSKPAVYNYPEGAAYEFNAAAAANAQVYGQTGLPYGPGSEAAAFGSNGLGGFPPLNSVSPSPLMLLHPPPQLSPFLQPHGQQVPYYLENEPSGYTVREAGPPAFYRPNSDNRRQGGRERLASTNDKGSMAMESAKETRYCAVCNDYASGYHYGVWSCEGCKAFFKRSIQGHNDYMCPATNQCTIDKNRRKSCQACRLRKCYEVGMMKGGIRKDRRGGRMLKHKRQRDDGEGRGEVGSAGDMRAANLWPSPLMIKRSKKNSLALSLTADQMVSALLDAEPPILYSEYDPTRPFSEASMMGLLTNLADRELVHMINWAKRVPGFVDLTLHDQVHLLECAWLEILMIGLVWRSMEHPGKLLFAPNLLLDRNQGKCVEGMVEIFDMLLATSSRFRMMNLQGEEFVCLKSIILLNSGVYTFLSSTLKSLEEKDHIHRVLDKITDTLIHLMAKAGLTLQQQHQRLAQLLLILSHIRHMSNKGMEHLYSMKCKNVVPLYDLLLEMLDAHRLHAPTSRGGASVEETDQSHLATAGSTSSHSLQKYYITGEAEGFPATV
Experimental: (§1) MCF-7 cells were adjusted to a concentration of 200,000 cells per mL in RPMI containing 10% charcoal-stripped FBS and 20 mM HEPES. 16 microliters of the cell suspension (3200 cells) was added to each well of a poly-D-lysine 384 well plate, and the cells were incubated overnight to allow the cells to adhere. The following day an eleven point, serial semilog dilution of each compound was added to the cells in 16 μL at a final concentration ranging from 0.3-0.000003 μM. At 4 or 24 hr post compound addition, the cells were fixed (10% formalin in PBS) for 20 minutes. Cells were permeabalized in PBS 0.1% Triton and blocked with LICOR blocking buffer (50 μl/well, 90′). The wells were then incubated overnight at 4° C. with SP1 rabbit monoclonal Ab (Thermo Scientific) diluted 1:1000 in LICOR blocking buffer/0.1% Tween-20. Wells which were treated with blocking buffer with Tween but no antibody were used as a background control. Wells were washed with 0.1% Tween-20/PBS and then incubated in goat anti-rabbit IRDye™ 800CW (LICOR Inc.; 1:1000) and DRAQ5 DNA dye (1:2000 for 2 mM stock) diluted in LICOR blocking buffer containing 0.1% Tween-20 and 0.01% SDS for 60 minutes. Cells were washed (50 μl/well, 5′ each) in 0.1% Tween-20/PBS. Plates were scanned on a LICOR Odyssey infrared imaging system. Integrated intensities in the 800 nm channel and 700 nm channel were measured to determine levels of ER and DNA respectively. Percent ER levels were determined as follows: (Integrated intensity 800 nm sample/integrated intensity 700 nm sample)/(Integrated intensity 800 nm untreated cells/integrated intensity 700 nm untreated cells)×100=% ER levels.

MCF-7 cells = assay: Breast Cancer Cell Viability Assay (MCF7 Viability Assay); conditions: 5 days' compound exposure, CellTiter-Glo; for IC50: Homo sapiens, MCF7, 120 h
Experimental: MCF-7 cells were adjusted to a concentration of 20,000 cells per mL in RPMI containing 10% FBS and 20 mM HEPES. 16 microliters of the cell suspension (320 cells) was added to each well of a 384 well plate, and the cells were incubated overnight to allow the cells to adhere. The following day an eleven point, serial semilog dilution of each compound was added to the cells in 16 μL at a final concentration ranging from 0.3-0.000003 μM. After 5 days' compound exposure, 16 μL of CellTiter-GLo (Promega, Madison Wis.) was added to the cells the relative luminescence units (RLUs) of each well was determined. CellTiter-Glo added to 32 μL of medium without cells was used to obtain a background value. The Percent viability of each sample was determined as follows: (RLU sample-RLU background/RLU untreated cells-RLU background)×100=% viability.

ER-α [2] = target: T1, ER-α; assay: ER-α In Cell Western Assay (ER1D5); conditions: MCF-7 cells, ER1D5 antibody, 4 or 24 hr post compound addition, read-out: ER In-Cell Western Assay (ER1D5); for Emax: MCF7, Max Response; for DC50: IC50
Experimental: as §1, with “with ER1D5 (Santa Cruz Biotechnology)” for “with SP1 rabbit monoclonal Ab (Thermo Scientific)”, “diluted 1:100” for “diluted 1:1000”, “goat anti-mouse” for “goat anti-rabbit”

Structure (SMILES) | Emax (ER-α [1]) | DC50 (ER-α [1]) | MCF7 Viability Assay Max Response (MCF-7 cells) | IC50 (MCF-7 cells) | Emax (ER-α [2]) | DC50 (ER-α [2])
CC1=C(c2cccc(O)c2)C(c2ccc(OCCN3CCCC3)cc2F)Oc2ccc(O)cc21 (stereo not drawn) [Example 34, 2-(2-Fluoro-4-(2-(pyrrolidin-1-yl)ethoxy)phenyl)-3-(3-hydroxyphenyl)-4-methyl-2H-chromen-6-ol] | 60 to 85% | ≤ 1 nM | ++ (++ = a single % value ≧50%) | ≤ 1 nM | 40 to 65% | ≤ 1 nM
CC1=C(c2cccc(O)c2)C(c2ccc(OCCN3CCCCCCC3)cc2)Oc2ccc(O)cc21 (stereo not drawn) [Example 25, 2-(4-(2-(Azocan-1-yl)ethoxy)phenyl)-3-(3-hydroxyphenyl)-4-methyl-2H-chromen-6-ol] | < 60% | ≤ 1 nM | + (+ = a single % value <50%) | ≤ 1 nM | < 40% | ≤ 1 nM
CC1=C(c2ccc(F)c(O)c2)C(c2ccc(OC[C@H](C)N3CC[C@@H](C)C3)cc2)Oc2ccc(O)cc21 (stereo partly drawn) [Example 57, 3-(4-Fluoro-3-hydroxyphenyl)-4-methyl-2-(4-((S)-2-((R)-3-methylpyrrolidin-1-yl)propoxy)phenyl)-2H-chromen-6-ol] | ≥ 85% | ≤ 1 nM | ++ (++ = a single % value ≧50%) | ≤ 1 nM | ≥ 65% | ≤ 1 nM
CC1=C(c2cccc(O)c2)C(c2ccc(OCCN3CCC(C)CC3)cc2)Oc2ccc(O)cc21 (stereo not drawn) [Example 21, 3-(3-Hydroxyphenyl)-4-methyl-2-(4-(2-(4-methylpiperidin-1-yl)ethoxy)phenyl)-2H-chromen-6-ol] | 60 to 85% | ≤ 1 nM | ++ (++ = a single % value ≧50%) | ≤ 1 nM | 40 to 65% | ≤ 1 nM
CCN(CC)CCOc1ccc(C2Oc3ccc(O)cc3C(C)=C2c2cccc(O)c2)cc1 (stereo not drawn) [Example 5, 2-(4-(2-(Diethylamino)ethoxy)phenyl)-3-(3-hydroxyphenyl)-4-methyl-2H-chromen-6-ol] | < 60% | ≤ 1 nM | ++ (++ = a single % value ≧50%) | ≤ 1 nM | < 40% | > 1 nM
CC1=C(c2cccc(O)c2)C(c2ccc(OC[C@H](C)N3CCC[C@H]3C)cc2)Oc2ccc(O)cc21 (stereo partly drawn) [Example 23, 3-(3-Hydroxyphenyl)-4-methyl-2-(4-((S)-2-((R)-2-methylpyrrolidin-1-yl)propoxy)phenyl)-2H-chromen-6-ol] | ≥ 85% | ≤ 1 nM | ++ (++ = a single % value ≧50%) | ≤ 1 nM | ≥ 65% | ≤ 1 nM
CC1=C(c2cccc(O)c2)C(c2ccc(OCCN3CCC3)cc2)Oc2ccc(O)cc21 (stereo not drawn) [Example 38, 2-(4-(2-(Azetidin-1-yl)ethoxy)phenyl)-3-(3-hydroxyphenyl)-4-methyl-2H-chromen-6-ol] | 60 to 85% | ≤ 1 nM | ++ (++ = a single % value ≧50%) | ≤ 1 nM | 40 to 65% | ≤ 1 nM
CC1=C(c2cccc(O)c2)[C@H](c2ccc(OC[C@H](C)N3CC[C@@H](C)C3)cc2)Oc2ccc(O)cc21 (single isomer, unassigned) [Example 2a] | ≥ 85% | ≤ 1 nM | ++ (++ = a single % value ≧50%) | ≤ 1 nM | ≥ 65% | ≤ 1 nM
CC1=C(c2cccc(O)c2)C(c2ccc(NCCN3CCCC3)cc2)Oc2ccc(O)cc21 (stereo not drawn) [Example 22, 3-(3-Hydroxyphenyl)-4-methyl-2-(4-((2-(pyrrolidin-1-yl)ethyl)amino)phenyl)-2H-chromen-6-ol] | 60 to 85% | ≤ 1 nM | + (+ = a single % value <50%) | ≤ 1 nM | 40 to 65% | > 1 nM
CC1=C(c2cccc(O)c2)C(c2ccc(OCCN3CC[C@@H](C)C3)cc2)Oc2ccc(O)cc21 (stereo partly drawn) [Example 8, 3-(3-Hydroxyphenyl)-4-methyl-2-(4-(2-((R)-3-methylpyrrolidin-1-yl)ethoxy)phenyl)-2H-chromen-6-ol] | ≥ 85% | ≤ 1 nM | ++ (++ = a single % value ≧50%) | ≤ 1 nM | ≥ 65% | ≤ 1 nM
CC1=C(c2ccc(C)c(O)c2)C(c2ccc(OC[C@H](C)N3CC[C@@H](C)C3)cc2)Oc2ccc(O)cc21 (stereo partly drawn) [Example 39, 3-(3-Hydroxy-4-methylphenyl)-4-methyl-2-(4-((S)-2-((R)-3-methylpyrrolidin-1-yl)propoxy)phenyl)-2H-chromen-6-ol] | 60 to 85% | > 1 nM | ++ (++ = a single % value ≧50%) | > 1 nM | ≥ 65% | > 1 nM
CC1=C(c2cccc(O)c2)C(c2ccc(OCCn3ccnc3)cc2)Oc2ccc(O)cc21 (stereo not drawn) [Example 16] | < 60% | ≤ 1 nM | + (+ = a single % value <50%) | ≤ 1 nM | < 40% | > 1 nM
CC1=C(c2cccc(O)c2)C(c2ccc(OC[C@H](C)N3CC[C@H](C)C3)cc2)Oc2ccc(O)cc21 (stereo partly drawn) [Example 12, 3-(3-Hydroxyphenyl)-4-methyl-2-(4-((S)-2-((S)-3-methylpyrrolidin-1-yl)propoxy)phenyl)-2H-chromen-6-ol] | 60 to 85% | ≤ 1 nM | ++ (++ = a single % value ≧50%) | ≤ 1 nM | 40 to 65% | ≤ 1 nM
